One experiment concerns the target T1, wild-type Kir3.4 channel (Homo sapiens, UniProt P48544).
T1 construct: expressed in transfected cells; host or cells: Xenopus laevis oocytes (cRNA injection)
As to the kind of experiment: TEVC in Xenopus oocytes, wild-type Kir3.4. The format is cell-based. Conditions: 1 μM. On the procedure:
X. laevis oocytes were isolated and microinjected as previously described ([6]). Human Kir3.1, mouse Kir3.2, and human Kir3.4 DNA constructs were used for electrophysiology experiments. All cRNA constructs were injected in the amount of 2 ng per oocyte. Injected oocytes were incubated for 2 to 3 days at 18 °C to allow for expression. Whole-cell oocyte currents were then measured using a GeneClamp 500 amplifier (Axon Instruments). Microelectrodes had resistances of 0.5 to 1 megohm using a 3M KCl solution in 1.4% agarose. Oocytes were perfused with a low K^+ (LK) solution ND96 (2 mM KCl, 96 mM NaCl, 1 mM MgCl2, 1.8 mM CaCl2, 5 mM HEPES-Na) to establish a baseline for the recordings. Basal current was measured in a high potassium (HK) solution ND96K (96 mM KCl, 10 mM HEPES-K, 1 mM MgCl2, 1.8 mM CaCl2). To block the current, the oocyte chamber was perfused with 4 mM BaCl2 in ND96K. Only the Barium-sensitive current was used for statistical analysis. To measure the inhibitory activity of the channels, 1 μM BP-G1 in ND96K (HK) was used. Typically, oocytes were held at 0 mV (EK) and the current was monitored constantly using a ramp protocol with a command potential from −80 to +80 mV. Current amplitude was measured at the end of a 1 s sweep. All currents were analyzed when they reached steady state. Error bars in the figures represent SD (N > 4).

In another experiment the target is Nav1.5 (Homo sapiens, UniProt Q14524). As to the kind of experiment: Cloned cardiac ion channel manual patch clamp, Nav1.5. The format is cell-based. Conditions: 1Hz; MPC (manual patch clamp). On the procedure:
(§1) For the data shown in Table S6, HEK293 cells expressing Kir3.1/4, Kir6.2/SUR2A (provided by Dr Andrew Tinker), Kir3.4, Kir2.1, and CHO cell lines stably expressing hERG KV1.5, KV4.3, NaV1.5 were maintained in media containing 10% FCS and appropriate selection antibiotic. Cells were grown either in suspension or in T-flasks and routinely passaged. Cells for patch clamping experiments were plated onto glass cover slips prior to use. Cells for automated patch clamping experiments were freshly prepared on each experimental day.
(§2) Standard giga-seal whole-cell patch-clamp techniques were performed at room temperature using glass pipettes (2–5 MΩ). HEKA EPC9/10 amplifiers and Pulse software were used for data acquisition. Series resistance was compensated by >70%. Experimental solutions are given under Supporting information. […]
(§3) Ionic current recordings were analyzed using HEKA software. […]
(§4) Inhibition of current (or leak-subtracted current) was calculated from steady-state current recorded in the absence (IControl) and presence of test-article (IIntervention). […]
(§5) Concentration-response data were fitted with a sigmoidal function of the form above, where YMin and YMax represent maximum and minimum current inhibition which were constrained to 100 and 0 respectively and x is the Log[DRUG (M)] based on GraphPad Prism analysis. % inhibition was calculated as in Equation 1. […]

The target in a further experiment is T2, Kir2.1 (Homo sapiens, UniProt P63252).
T2 construct: host or cells: HEK293
T2 sequence (P63252 whole entry): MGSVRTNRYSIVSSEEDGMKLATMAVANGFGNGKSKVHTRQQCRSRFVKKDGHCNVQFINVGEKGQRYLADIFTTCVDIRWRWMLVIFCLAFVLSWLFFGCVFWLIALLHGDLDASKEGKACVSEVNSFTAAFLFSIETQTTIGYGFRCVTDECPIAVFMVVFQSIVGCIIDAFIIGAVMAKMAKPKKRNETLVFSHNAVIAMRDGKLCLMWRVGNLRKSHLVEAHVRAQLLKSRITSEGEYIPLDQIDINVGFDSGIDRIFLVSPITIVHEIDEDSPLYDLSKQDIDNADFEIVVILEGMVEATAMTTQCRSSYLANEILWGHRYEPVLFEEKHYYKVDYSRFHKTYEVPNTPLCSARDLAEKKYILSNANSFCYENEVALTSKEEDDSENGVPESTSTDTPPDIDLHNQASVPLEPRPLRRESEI
The experiment in a line: Cloned cardiac ion channel manual patch clamp, Kir2.1. The format is cell-based. Conditions: MPC (manual patch clamp).

The target in the next experiment is Kv1.5 (Homo sapiens, UniProt P22460). As to the kind of experiment: Cloned cardiac ion channel manual patch clamp, Kv1.5. The format is cell-based. Conditions: MPC (manual patch clamp). On the procedure: as §1, §2, §3, §4, §5
Chain of Kv1.5 (P22460 whole entry): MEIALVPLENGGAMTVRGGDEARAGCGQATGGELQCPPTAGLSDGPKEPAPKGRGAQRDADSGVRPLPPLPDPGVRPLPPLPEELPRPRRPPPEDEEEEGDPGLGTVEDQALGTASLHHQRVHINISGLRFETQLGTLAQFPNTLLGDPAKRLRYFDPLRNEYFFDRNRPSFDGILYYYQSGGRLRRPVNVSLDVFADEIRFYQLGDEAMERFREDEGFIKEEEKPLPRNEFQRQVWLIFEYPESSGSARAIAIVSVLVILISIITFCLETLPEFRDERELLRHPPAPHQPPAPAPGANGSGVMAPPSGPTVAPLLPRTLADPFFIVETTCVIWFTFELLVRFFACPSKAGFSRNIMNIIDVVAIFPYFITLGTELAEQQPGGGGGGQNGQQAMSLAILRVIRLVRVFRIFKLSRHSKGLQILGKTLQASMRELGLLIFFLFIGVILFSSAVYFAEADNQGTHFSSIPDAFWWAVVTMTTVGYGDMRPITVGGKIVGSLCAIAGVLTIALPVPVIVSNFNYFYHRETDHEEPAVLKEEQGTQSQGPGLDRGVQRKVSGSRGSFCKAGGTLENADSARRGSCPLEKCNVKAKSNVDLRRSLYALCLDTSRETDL
In another experiment the target is Kv4.3 (Homo sapiens, UniProt Q9UK17). The experiment in a line: Cloned cardiac ion channel patch clamp, Kv4.3. The format is cell-based. On the procedure: as §1, §2, §3, §4, §5
Chain of Kv4.3 (Q9UK17 whole entry): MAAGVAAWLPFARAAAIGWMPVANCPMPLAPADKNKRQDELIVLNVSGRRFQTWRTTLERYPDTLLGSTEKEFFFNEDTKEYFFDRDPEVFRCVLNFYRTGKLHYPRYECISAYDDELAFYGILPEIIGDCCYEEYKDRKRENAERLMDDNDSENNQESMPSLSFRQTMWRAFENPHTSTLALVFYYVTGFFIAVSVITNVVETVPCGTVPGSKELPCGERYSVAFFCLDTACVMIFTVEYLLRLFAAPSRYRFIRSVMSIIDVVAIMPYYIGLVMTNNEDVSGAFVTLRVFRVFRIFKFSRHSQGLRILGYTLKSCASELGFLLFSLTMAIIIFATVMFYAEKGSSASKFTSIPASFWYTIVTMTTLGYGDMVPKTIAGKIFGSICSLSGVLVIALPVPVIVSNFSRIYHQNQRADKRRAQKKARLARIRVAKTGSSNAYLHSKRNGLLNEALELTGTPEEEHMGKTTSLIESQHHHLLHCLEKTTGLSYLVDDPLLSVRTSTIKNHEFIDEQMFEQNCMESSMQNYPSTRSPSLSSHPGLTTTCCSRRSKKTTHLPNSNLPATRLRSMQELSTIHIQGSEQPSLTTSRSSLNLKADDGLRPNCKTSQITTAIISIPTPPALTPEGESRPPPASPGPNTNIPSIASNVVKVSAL
The next experiment deals with T3, Neurokinin NK1 (Homo sapiens, UniProt P25103).
T3 construct: endogenous in cells; host or cells: U373MG uppsala
The experiment in a line: Radioligand binding, [125I]-Substance P LYS3, U373MG uppsala. Conditions: read-out: % Specific Binding at 10 µM.

A further experiment deals with T4, Dopamine transporter (Homo sapiens, UniProt Q01959).
T4 construct: expressed in transfected cells; host or cells: CHO cells
T4 sequence (Q01959 whole entry): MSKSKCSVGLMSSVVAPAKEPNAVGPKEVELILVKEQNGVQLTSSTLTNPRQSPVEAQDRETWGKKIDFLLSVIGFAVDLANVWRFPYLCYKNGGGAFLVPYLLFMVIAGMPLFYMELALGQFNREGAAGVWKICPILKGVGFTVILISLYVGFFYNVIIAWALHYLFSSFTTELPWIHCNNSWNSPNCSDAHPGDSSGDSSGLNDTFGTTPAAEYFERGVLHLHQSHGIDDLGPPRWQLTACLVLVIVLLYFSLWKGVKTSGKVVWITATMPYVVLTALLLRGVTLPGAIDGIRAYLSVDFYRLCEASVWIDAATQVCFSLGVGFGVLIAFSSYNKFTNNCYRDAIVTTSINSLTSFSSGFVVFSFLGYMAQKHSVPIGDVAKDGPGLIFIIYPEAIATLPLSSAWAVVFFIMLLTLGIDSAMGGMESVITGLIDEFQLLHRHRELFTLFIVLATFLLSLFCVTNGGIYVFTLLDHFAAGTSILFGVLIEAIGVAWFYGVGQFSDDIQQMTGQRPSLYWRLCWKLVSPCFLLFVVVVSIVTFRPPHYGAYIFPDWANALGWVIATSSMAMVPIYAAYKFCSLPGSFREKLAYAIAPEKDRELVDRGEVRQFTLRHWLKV
As to the kind of experiment: Radioligand binding, [3H]BTCP.

Entries after “also recorded” stand apart in the source; their conditions may differ.

From PMC8086025, “A benzopyran with antiarrhythmic activity is an inhibitor of Kir3.1-containing potassium channels” (The Journal of Biological Chemistry, 2021) come the findings set out here.

T1 sequence (P48544 whole entry): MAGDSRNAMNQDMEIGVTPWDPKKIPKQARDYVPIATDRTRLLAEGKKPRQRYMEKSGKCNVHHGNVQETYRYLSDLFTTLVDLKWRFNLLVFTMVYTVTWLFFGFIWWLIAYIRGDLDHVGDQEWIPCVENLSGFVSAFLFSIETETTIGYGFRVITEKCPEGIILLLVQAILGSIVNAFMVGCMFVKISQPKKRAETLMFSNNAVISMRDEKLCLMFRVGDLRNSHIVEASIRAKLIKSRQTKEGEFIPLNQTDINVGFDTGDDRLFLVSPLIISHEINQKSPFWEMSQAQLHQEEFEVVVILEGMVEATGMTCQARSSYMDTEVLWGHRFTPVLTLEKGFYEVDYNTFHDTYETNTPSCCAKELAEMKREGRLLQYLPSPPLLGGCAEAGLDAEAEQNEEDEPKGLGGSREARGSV
Chain of Nav1.5 (Q14524 whole entry): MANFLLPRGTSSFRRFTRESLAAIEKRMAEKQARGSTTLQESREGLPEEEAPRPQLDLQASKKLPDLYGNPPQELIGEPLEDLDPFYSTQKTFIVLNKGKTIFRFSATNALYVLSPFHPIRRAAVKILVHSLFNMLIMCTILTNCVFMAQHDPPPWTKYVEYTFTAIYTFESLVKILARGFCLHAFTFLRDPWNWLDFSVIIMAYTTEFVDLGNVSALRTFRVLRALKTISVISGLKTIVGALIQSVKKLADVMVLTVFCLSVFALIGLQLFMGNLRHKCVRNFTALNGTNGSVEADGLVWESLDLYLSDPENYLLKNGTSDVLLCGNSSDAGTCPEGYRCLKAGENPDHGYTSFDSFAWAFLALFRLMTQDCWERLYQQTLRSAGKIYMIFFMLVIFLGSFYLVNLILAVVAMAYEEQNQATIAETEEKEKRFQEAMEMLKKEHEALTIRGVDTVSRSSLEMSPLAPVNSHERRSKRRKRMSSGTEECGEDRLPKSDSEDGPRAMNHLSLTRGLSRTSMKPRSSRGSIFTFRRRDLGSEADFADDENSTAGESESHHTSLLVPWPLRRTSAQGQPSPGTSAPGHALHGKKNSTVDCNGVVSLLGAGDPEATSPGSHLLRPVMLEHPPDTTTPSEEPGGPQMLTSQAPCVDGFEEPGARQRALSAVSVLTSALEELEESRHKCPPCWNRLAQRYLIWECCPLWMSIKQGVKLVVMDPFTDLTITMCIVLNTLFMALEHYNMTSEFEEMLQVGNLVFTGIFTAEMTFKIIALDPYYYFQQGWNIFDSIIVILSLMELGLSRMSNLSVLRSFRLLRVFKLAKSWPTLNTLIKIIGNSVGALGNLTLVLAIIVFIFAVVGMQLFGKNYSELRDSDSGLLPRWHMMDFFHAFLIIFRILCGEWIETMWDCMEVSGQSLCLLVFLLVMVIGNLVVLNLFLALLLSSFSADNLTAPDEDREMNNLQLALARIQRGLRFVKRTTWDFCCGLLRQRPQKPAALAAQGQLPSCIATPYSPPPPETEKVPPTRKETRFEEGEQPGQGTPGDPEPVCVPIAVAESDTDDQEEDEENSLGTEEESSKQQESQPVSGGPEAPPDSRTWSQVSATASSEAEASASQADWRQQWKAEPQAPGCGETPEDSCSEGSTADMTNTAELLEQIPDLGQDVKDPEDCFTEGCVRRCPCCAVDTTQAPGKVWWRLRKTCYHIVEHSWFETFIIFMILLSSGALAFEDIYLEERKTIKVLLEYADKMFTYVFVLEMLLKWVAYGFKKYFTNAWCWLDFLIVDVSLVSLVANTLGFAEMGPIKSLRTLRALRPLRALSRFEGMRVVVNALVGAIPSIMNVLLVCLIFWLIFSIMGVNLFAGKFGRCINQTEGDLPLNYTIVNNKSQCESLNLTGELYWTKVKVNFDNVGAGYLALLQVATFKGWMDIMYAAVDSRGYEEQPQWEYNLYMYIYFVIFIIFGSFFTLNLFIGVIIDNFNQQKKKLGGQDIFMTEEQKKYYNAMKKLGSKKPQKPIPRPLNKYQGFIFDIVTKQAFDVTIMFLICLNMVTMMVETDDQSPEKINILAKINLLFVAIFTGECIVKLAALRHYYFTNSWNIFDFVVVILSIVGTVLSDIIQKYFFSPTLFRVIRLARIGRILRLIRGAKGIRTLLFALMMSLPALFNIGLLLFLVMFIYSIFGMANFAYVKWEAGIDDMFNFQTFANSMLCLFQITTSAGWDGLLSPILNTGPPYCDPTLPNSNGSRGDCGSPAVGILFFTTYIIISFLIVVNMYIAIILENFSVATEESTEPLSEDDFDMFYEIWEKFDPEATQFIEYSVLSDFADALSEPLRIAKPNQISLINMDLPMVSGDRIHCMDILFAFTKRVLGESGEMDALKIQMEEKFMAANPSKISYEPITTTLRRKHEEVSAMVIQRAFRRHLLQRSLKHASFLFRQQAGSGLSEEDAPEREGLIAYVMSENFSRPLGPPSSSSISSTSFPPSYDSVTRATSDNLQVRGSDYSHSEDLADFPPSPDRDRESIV

Consider `Cc1cc(CO)nc2cc3c(cc12)OC(C)(C)[C@H](O)[C@H]3NCCc1ccccc1` [BP-G1, (3R,4S)-7-(hydroxymethyl)-2,2,9-trimethyl-4-(2-phenylethylamino)-3,4-dihydropyrano[2,3-g]quinolin-3-ol], for which the “inhibition of wild-type Kir3.4” value against wild-type Kir3.4 channel was “did not inhibit; also recorded: showed no block”. In addition, the IC50 against Nav1.5 was over 10 µM; against Kir2.1 it was over 10 µM; at Kv1.5, 16.3 µM; against Kv4.3 it was 11.3 µM; on Dopamine transporter, 1 µM. The inhibition at 10 µM came to 42.6% on Neurokinin NK1 and 91.2% on Dopamine transporter (10 µM, read-out: % Specific Binding at 10 µM). In addition, the inhibition constant (Ki) on Dopamine transporter is 0.55 µM. The “nH, Dopamine transporter (h)” value on Dopamine transporter was determined as 1. The “% Specific Binding at 10 µM” value at Dopamine transporter (10 µM) was 91.2%.
